From patent US11427558B1, “Indazoles and azaindazoles as LRRK2 inhibitors” (ESCAPE Bio, Inc., priority 2019, dated 2022)

Tests used:
[1] = molecular target: Recombinant wild type LRRK2 protein (Homo sapiens (Human), UniProt Q5S007); assay: LRRK2 kinase activity, LanthaScreen TR-FRET assay (wild type); assay type: biochemical; conditions: LRRKtide 400 nM, 25 μM ATP, 60 min; read-out: LRRK2 WT IC50
Method: (§1) LRRK2 kinase activity was measured using a LanthaScreen™ Kinase Activity Assay from ThermoFisher Scientific. Recombinant wild type or G2019S-LRRK2 protein (Life Technologies, PR8604B or PV4881, respectively), was incubated with a fluorescein-labeled peptide substrate called LRRKtide that is based upon ezrin/radixin/moesin (ERM) (Life Technologies, PV4901) in the presence of ATP and serially diluted compound. […] Compound-dependent inhibition of the TR-FRET signal was used to generate a concentration-response curve for IC50 determination.
(§2) After 60 min incubation at room temperature, the reaction was stopped by addition of 10 μL of 2× stop solution containing a final concentration of 2 nM anti-pERM antibody and 10 mM EDTA. […] The ratio of the 520 nm and 495 nm emission was used to analyze the data.

[2] = molecular target: Recombinant G2019S-LRRK2 protein (Homo sapiens (Human), UniProt Q5S007, G2019S); assay: LRRK2 kinase activity, LanthaScreen TR-FRET assay (G2019S); assay type: biochemical; conditions: LRRKtide 400 nM, 25 μM ATP, 60 min
Method: as §1, §2

Recombinant wild type LRRK2 protein, sequence (Q5S007 whole entry): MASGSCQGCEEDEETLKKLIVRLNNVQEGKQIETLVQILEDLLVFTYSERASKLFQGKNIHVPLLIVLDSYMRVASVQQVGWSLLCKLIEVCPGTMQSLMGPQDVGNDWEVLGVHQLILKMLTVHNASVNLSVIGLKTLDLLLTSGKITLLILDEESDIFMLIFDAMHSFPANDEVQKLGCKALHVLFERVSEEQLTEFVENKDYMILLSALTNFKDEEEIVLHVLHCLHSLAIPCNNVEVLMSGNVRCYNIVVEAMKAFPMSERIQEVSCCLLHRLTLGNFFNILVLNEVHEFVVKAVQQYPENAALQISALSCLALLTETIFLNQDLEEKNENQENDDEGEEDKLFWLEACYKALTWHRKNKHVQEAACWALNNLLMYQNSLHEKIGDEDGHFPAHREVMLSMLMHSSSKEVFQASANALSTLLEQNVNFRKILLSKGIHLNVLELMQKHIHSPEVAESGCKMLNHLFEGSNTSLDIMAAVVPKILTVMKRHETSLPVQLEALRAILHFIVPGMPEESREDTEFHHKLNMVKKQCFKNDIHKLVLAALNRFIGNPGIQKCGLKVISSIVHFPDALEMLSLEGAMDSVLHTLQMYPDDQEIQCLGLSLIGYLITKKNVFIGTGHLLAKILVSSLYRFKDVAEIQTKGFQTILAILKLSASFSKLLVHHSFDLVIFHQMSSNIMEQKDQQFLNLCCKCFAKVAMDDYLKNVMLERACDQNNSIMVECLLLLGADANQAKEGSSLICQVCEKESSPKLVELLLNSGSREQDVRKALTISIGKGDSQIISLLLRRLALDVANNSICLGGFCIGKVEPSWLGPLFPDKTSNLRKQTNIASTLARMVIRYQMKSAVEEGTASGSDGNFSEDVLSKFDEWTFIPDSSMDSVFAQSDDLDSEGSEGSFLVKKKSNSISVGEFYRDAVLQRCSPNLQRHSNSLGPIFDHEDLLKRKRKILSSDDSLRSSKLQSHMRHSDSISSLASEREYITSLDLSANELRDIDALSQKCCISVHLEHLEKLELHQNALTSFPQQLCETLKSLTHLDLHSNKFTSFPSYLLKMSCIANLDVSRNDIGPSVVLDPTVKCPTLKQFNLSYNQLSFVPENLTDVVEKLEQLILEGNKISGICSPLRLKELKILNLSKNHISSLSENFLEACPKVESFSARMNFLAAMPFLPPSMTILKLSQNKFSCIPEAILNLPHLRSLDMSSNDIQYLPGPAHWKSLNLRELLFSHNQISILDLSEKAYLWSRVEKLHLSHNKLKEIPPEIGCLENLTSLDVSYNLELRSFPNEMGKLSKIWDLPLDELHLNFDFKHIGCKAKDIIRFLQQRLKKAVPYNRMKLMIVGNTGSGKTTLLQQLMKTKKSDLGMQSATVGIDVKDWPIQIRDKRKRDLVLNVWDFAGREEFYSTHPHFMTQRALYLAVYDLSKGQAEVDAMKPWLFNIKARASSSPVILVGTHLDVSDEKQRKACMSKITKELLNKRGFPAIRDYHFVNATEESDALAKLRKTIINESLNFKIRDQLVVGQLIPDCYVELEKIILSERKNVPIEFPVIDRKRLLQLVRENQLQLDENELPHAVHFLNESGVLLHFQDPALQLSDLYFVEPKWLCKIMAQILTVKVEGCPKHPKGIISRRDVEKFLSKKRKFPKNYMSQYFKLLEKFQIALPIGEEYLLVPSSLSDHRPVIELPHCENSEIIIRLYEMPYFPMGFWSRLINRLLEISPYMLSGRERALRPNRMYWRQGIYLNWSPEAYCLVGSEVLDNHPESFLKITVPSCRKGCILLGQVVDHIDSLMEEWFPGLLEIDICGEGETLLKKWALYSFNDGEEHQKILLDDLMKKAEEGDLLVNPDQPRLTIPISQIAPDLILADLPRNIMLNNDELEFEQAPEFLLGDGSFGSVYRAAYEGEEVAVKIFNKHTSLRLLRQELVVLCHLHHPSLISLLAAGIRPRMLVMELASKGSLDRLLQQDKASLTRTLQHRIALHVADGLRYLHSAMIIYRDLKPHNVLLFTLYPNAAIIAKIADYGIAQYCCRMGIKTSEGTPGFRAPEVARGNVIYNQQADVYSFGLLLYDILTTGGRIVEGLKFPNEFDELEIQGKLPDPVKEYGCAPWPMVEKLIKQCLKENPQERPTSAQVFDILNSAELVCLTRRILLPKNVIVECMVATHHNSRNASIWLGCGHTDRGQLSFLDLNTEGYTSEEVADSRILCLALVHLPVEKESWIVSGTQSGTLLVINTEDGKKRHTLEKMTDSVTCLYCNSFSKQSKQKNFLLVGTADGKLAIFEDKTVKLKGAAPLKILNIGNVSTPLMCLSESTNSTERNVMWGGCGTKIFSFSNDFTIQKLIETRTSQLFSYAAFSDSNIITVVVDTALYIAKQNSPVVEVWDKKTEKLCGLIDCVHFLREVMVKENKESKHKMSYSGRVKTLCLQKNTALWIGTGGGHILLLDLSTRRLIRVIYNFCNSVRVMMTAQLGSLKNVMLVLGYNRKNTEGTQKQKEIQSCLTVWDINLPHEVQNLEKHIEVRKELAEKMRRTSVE
Recombinant G2019S-LRRK2 protein, sequence (Q5S007 whole entry G2019S): as the sequence (Q5S007 whole entry) above, with G2019S counted along it

Compound	IC50 [1]	IC50 [2]
2-Chloro-3-cyano-N-(3-(1-(difluoromethyl)-1H-pyrazol-3-yl)-1H-indazol-5-yl)benzamide [Example 166]	< 100 nM	< 100 nM
4-Cyano-N-(3-(1-(difluoromethyl)-1H-pyrazol-3-yl)-1H-indazol-5-yl)-2-fluoro-6-methylbenzamide [Example 165]	< 100 nM	< 100 nM
N#Cc1cnc(C(=O)Nc2ccc3[nH]nc(-c4ccoc4)c3c2)c(F)c1 [Example 1, 5-Cyano-3-fluoro-N-(3-(furan-3-yl)-1H-indazol-5-yl)picolinamide]	< 100 nM	< 100 nM
N#Cc1ccc(C(=O)Nc2ccc3[nH]nc(-c4ccoc4)c3c2)c(Br)c1 [Example 2, 2-Bromo-4-cyano-N-(3-(furan-3-yl)-1H-indazol-5-yl)benzamide]	< 100 nM	< 100 nM
N#Cc1ccc(C(=O)Nc2ccc3[nH]nc(-c4ccoc4)c3c2)c(F)c1 [Example 3, 4-Cyano-2-fluoro-N-(3-(furan-3-yl)-1H-indazol-5-yl)benzamide]	< 100 nM	< 100 nM
N#Cc1ccc(C(=O)Nc2ccc3[nH]nc(-c4ccoc4)c3c2)c(I)c1 [Example 4, 4-Cyano-N-(3-(furan-3-yl)-1H-indazol-5-yl)-2-iodobenzamide]	< 100 nM	< 100 nM
N#Cc1ccc(C(=O)Nc2ccc3[nH]nc(-c4ccoc4)c3c2)c(Cl)c1 [Example 5, 2-Chloro-4-cyano-N-(3-(furan-3-yl)-1H-indazol-5-yl)benzamide]	< 100 nM	< 100 nM
N#Cc1ccc(C(=O)Nc2ccc3[nH]nc(-c4ccoc4)c3c2)c(C(F)(F)F)c1 [Example 6, 4-Cyano-N-(3-(furan-3-yl)-1H-indazol-5-yl)-2-(trifluoromethyl)benzamide]	< 100 nM	< 100 nM
N#Cc1cc(F)c(C(=O)Nc2ccc3[nH]nc(-c4ccoc4)c3c2)c(F)c1 [Example 7, 4-Cyano-2,6-difluoro-N-(3-(furan-3-yl)-1H-indazol-5-yl)benzamide]	< 100 nM	< 100 nM
Cc1nc(C#N)ccc1C(=O)Nc1ccc2[nH]nc(-c3ccoc3)c2c1 [Example 8, 6-Cyano-N-(3-(furan-3-yl)-1H-indazol-5-yl)-2-methylnicotinamide]	100 to 1000 nM	< 100 nM
N#Cc1ccc(C(=O)Nc2ccc3[nH]nc(-c4ccoc4)c3c2)cn1 [Example 9, 6-Cyano-N-(3-(furan-3-yl)-1H-indazol-5-yl)nicotinamide]	100 to 1000 nM	< 100 nM
Cc1cc(C#N)cc(C)c1C(=O)Nc1ccc2[nH]nc(-c3ccoc3)c2c1 [Example 10, 4-Cyano-N-(3-(furan-3-yl)-1H-indazol-5-yl)-2,6-dimethylbenzamide]	< 100 nM	< 100 nM
N#Cc1ccc(C(=O)Nc2ccc3[nH]nc(-c4ccoc4)c3c2)cc1 [Example 11, 4-Cyano-N-(3-(furan-3-yl)-1H-indazol-5-yl)benzamide]	100 to 1000 nM	< 100 nM
Cc1cc(C#N)ccc1C(=O)Nc1ccc2[nH]nc(C)c2c1 [Example 12, 4-Cyano-2-methyl-N-(3-methyl-1H-indazol-5-yl)benzamide]	100 to 1000 nM	< 100 nM
Cc1nc(C(=O)Nc2ccc3[nH]nc(-c4ccoc4)c3c2)ccc1C#N [Example 13, 5-Cyano-N-(3-(furan-3-yl)-1H-indazol-5-yl)-6-methylpicolinamide]	100 to 1000 nM	< 100 nM

Compound	IC50 [1]	IC50 [2]
COc1cc(C#N)ccc1C(=O)Nc1ccc2[nH]nc(-c3ccoc3)c2c1 [Example 15, 4-Cyano-N-(3-(furan-3-yl)-1H-indazol-5-yl)-2-methoxybenzamide]	100 to 1000 nM	< 100 nM
N#Cc1ccc(C(=O)Nc2ccc3[nH]nc(-c4ccoc4)c3c2)nc1 [Example 16, 5-Cyano-N-(3-(furan-3-yl)-1H-indazol-5-yl)picolinamide]	100 to 1000 nM	< 100 nM
Cc1ccc(C#N)cc1C(=O)Nc1ccc2[nH]nc(-c3ccoc3)c2c1 [Example 17, 5-Cyano-N-(3-(furan-3-yl)-1H-indazol-5-yl)-2-methylbenzamide]	< 100 nM	< 100 nM
Cc1cc(C#N)ccc1C(=O)Nc1ccc2[nH]nc(-c3ccoc3)c2c1 [Example 18, 4-Cyano-N-(3-(furan-3-yl)-1H-indazol-5-yl)-2-methylbenzamide]	< 100 nM	< 100 nM
Cc1c(C#N)cccc1C(=O)Nc1ccc2[nH]nc(-c3ccoc3)c2c1 [Example 19, 3-Cyano-N-(3-(furan-3-yl)-1H-indazol-5-yl)-2-methylbenzamide]	< 100 nM	< 100 nM
N#Cc1ncc(C(=O)Nc2ccc3[nH]nc(-c4ccoc4)c3c2)s1 [Example 20, 2-Cyano-N-(3-(furan-3-yl)-1H-indazol-5-yl)thiazole-5-carboxamide]	100 to 1000 nM	< 100 nM
N#Cc1cccc(C(=O)Nc2ccc3[nH]nc(-c4ccncc4)c3c2)c1 [Example 21, 3-Cyano-N-(3-(pyridin-4-yl)-1H-indazol-5-yl)benzamide]	< 100 nM	< 100 nM
N#Cc1cc(C(=O)Nc2ccc3[nH]nc(-c4ccncc4)c3c2)ccn1 [Example 22, 2-Cyano-N-(3-(pyridin-4-yl)-1H-indazol-5-yl)isonicotinamide]	< 100 nM	< 100 nM
N#Cc1ccnc(C(=O)Nc2ccc3[nH]nc(-c4ccncc4)c3c2)c1 [Example 23, 4-Cyano-N-(3-(pyridin-4-yl)-1H-indazol-5-yl)picolinamide]	100 to 1000 nM	< 100 nM
N#Cc1cncc(C(=O)Nc2ccc3[nH]nc(-c4ccncc4)c3c2)c1 [Example 24, 5-Cyano-N-(3-(pyridin-4-yl)-1H-indazol-5-yl)nicotinamide]	100 to 1000 nM	100 to 1000 nM
N#Cc1ncc(C(=O)Nc2ccc3[nH]nc(-c4ccncc4)c3c2)cn1 [Example 25, 2-Cyano-N-(3-(pyridin-4-yl)-1H-indazol-5-yl)pyrimidine-5-carboxamide]	100 to 1000 nM	100 to 1000 nM
Cc1c(C(=O)Nc2ccc3[nH]nc(-c4ccccc4)c3c2)cc(C#N)n1C [Example 26, 5-Cyano-1,2-dimethyl-N-(3-phenyl-1H-indazol-5-yl)-1H-pyrrole-3-carboxamide]	100 to 1000 nM	< 100 nM
Cc1oc(C#N)cc1C(=O)Nc1ccc2[nH]nc(-c3ccccc3)c2c1 [Example 27, 5-Cyano-2-methyl-N-(3-phenyl-1H-indazol-5-yl)furan-3-carboxamide]	100 to 1000 nM	< 100 nM
Cc1ccc(-c2n[nH]c3ccc(NC(=O)c4ncc(C#N)cc4C)cc23)cc1C [Example 28, 5-Cyano-N-(3-(3,4-dimethylphenyl)-1H-indazol-5-yl)-3-methylpicolinamide]	100 to 1000 nM	< 100 nM
Cc1cc(C#N)cnc1C(=O)Nc1ccc2[nH]nc(-c3ccco3)c2c1 [Example 29, 5-Cyano-N-(3-(furan-2-yl)-1H-indazol-5-yl)-3-methylpicolinamide]	100 to 1000 nM	< 100 nM
Cc1cc(C#N)cnc1C(=O)Nc1ccc2[nH]nc(-c3ccoc3)c2n1 [Example 105, 5-Cyano-N-(3-(furan-3-yl)-1H-pyrazolo[4,3-b]pyridin-5-yl)-3-methylpicolinamide]	100 to 1000 nM	
